According to patent publication US10337071B2, “Oncogene NRF2” (National Cancer Center, priority 2008, dated 2019):

Experiments:
Assay type in all cases: cell-based
[1] = system: esophageal cancer cell lines with NRF2 gene abnormality (KYSE-50, KYSE-70, KYSE-180); experiment: Suppression of proliferation by rapamycin treatment, MTS assay; settings: rapamycin 1, 5, 10 nM, 72 hours
Method: (§1) Suppression of proliferation by rapamycin treatment was examined for the esophageal cancer cell lines without NRF2 gene abnormality (KYSE-30, KYSE-140, KYSE-170, KYSE-270) and for the cell lines with NRF2 gene abnormality (KYSE-50, KYSE-70, KYSE-180). The 7 esophageal cancer cell lines were seeded onto 96 well plates at 5000 cells/well, and 0, 1, 5, and 10 nM of rapamycin were added. After incubated at 37 degrees C. for 72 hours, viable cells were counted based on the NADH activity (MTS assay, CellTiter 96 Aqueous One Solution Cell Proliferation Assay, Promega).

[2] = system: head and neck cancer cell lines with NRF2 gene abnormality (HO-1-u-1); experiment: as above
Method: as §1
(§2) In addition, growth suppression effect of rapamycin treatment to the lung cancer cell lines without NRF2 gene abnormality (SQ-5, QG-56) or with NRF2 gene abnormality (LK-2, EBC-1) and to the head and neck cancer cell lines without NRF2 gene abnormality (HO-1-N-1, HSC2) or with NRF2 gene abnormality (HO-1-u-1) were also examined by similar method for the above esophageal cancer cell lines.

[3] = system: lung cancer cell lines with NRF2 gene abnormality (LK-2, EBC-1); experiment: as above
Method: as §1, §2

[4] = system: KYSE-180 esophageal cancer cell line (NRF2 gene mutation); experiment: Growth suppression by dsRNA against NRF2, MTS assay; settings: KYSE-180, 72 hours, vs control dsRNA
Method: (§3) NRF2 gene expression was suppressed by dsRNA for the esophageal cancer cell lines that have NRF2 gene mutation (KYSE-50 and KYSE-180). Esophagus cancer cell lines were seeded into 96 well plates at 5000 cells/well, and control dsRNA (ON-TARGET plus Non-targeting Pool, Dharmacon, D-001810-10) or dsRNA against NRF2 (NRF2 dsRNA) (5′-[…]-3′ (SEQ ID NO 20) and 5′-p[…]-3′ (SEQ ID NO 21)) were introduced using Lipofectamine (Lipofectamine RNAiMax, Invitrogen). Then they were incubated at 37 degrees C. for 72 hours. Then, the number of viable cells was determined by a MTS assay for the NADH activity (CellTiter 96 Aqueous One Solution Cell Proliferation Assay, Promega).

[5] = system: KYSE-50 esophageal cancer cell line (NRF2 gene mutation); experiment: as above; settings: KYSE-50, 72 hours, vs control dsRNA
Method: as §3

Compound	cell proliferation, ratio of cell counts, % of the control (0 nM = 100%) [1]	cell proliferation, ratio of cell counts, % of the control (0 nM = 100%) [2]	cell proliferation, ratio of cell counts, % of the control (0 nM = 100%) [3]	suppressive effect on proliferation compared with the control [4] [%]	suppressive effect on proliferation compared with the control [5] [%]
CO[C@H]1C[C@@H]2CC[C@@H](C)[C@@](O)(O2)C(=O)C(=O)N2CCCC[C@H]2C(=O)O[C@H]([C@H](C)C[C@@H]2CC[C@@H](O)[C@H](OC)C2)CC(=O)[C@H](C)/C=C(\C)[C@@H](O)[C@@H](OC)C(=O)[C@H](C)C[C@H](C)/C=C/C=C/C=C/1C [rapamycin]	about 70%	about 70%	62-70%		
NRF2 dsRNA: dsRNA against NRF2: 5'-UAAAGUGGCUGCUCAGAAUUU-3' (SEQ ID NO 20) and 5'-pAUUCUGAGCAGCCACUUUAUU-3' (SEQ ID NO 21) (second strand carries 5' phosphate, otherwise chemistry not given here, further chemistry not given here)				38	26
